Assay results as given in patent US10472324B2, “2-cyano-3-cyclopropyl-3-hydroxy-N-aryl-thioacrylamide derivatives” (Algiax Pharmaceuticals GmbH, priority 2014, dated 2019).

How the values were obtained:
[1] = target: human GABAA α3β3γ2 (Homo sapiens (Human), UniProt P18507+P28472+P34903); assay: Patch clamp electrophysiology, positive modulation, HEK293 cells expressing GABAA α3β3γ2; assay type: cell-based; conditions: GABA EC20 current = 100%
From the text: (§1) Electrophysiological assays on different subunit combinations of the human GABAA receptor complex.
(§2) The functional positive modulation activity of the test compounds were investigated by using patch clamp techniques on HEK293 cells stably expressing different subunit combinations of the human GABAA receptor complex. In brief, the peak inward currents in response to the GABA (natural ligand of the GABAA receptors) additions in the presence of increasing concentrations of test compound were measured. To calculate the positive modulation activity the mean effect of GABA (EC20 concentration) was set to 100%.
(§3) A value of 100 percent equates to the compound having an effect equivalent to the addition of the EC20 concentration of GABA.

[2] = target: human GABAA α1β3γ2 (Homo sapiens (Human), UniProt P14867+P18507+P28472); assay: Patch clamp electrophysiology, positive modulation, HEK293 cells expressing GABAA α1β3γ2; assay type: cell-based; conditions: GABA EC20 current = 100%
Sequence of human GABAA α1β3γ2 (P14867 28-456): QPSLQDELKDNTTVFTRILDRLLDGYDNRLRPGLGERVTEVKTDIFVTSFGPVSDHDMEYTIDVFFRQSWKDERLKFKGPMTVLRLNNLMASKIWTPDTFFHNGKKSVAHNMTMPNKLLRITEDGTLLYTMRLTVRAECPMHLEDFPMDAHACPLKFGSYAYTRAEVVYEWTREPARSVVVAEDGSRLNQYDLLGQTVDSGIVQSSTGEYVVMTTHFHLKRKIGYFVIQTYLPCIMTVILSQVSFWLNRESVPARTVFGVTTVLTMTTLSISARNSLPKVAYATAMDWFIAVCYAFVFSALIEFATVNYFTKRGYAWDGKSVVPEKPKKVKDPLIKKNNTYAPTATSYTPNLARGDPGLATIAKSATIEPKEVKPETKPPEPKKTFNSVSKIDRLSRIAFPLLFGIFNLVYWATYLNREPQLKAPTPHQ
Sequence of human GABAA α1β3γ2 (P28472 26-473): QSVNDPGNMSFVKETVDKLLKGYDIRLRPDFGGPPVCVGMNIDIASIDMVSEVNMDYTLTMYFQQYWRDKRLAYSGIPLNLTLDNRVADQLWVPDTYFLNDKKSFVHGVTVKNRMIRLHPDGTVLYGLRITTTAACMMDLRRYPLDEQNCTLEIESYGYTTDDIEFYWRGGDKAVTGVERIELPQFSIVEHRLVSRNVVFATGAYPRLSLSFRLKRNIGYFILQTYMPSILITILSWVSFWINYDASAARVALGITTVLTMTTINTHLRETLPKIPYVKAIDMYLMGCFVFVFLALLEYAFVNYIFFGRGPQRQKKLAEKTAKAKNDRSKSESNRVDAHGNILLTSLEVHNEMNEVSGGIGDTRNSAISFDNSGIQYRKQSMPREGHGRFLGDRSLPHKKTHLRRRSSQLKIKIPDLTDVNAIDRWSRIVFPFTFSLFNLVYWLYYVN
Sequence of human GABAA α1β3γ2 (P18507 40-475): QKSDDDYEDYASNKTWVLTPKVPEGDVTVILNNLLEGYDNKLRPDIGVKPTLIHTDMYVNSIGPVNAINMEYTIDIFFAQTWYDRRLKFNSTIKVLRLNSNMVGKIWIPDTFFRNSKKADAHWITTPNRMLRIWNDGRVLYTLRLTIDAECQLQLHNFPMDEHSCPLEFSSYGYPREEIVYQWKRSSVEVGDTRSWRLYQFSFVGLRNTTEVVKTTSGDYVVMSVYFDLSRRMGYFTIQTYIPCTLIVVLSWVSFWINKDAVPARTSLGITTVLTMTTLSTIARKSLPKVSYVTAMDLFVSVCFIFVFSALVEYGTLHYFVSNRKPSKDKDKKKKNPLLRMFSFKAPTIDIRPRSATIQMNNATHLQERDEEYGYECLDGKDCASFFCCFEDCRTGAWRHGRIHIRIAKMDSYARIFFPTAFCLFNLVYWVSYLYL
From the text: as §1, §2, §3

[3] = target: GABA gated Cl-channel (GABA.A receptor complex); assay: GABAA receptor binding assay ([35S]TBPS radioligand); conditions: 3 nM [35S]TBPS, rat cerebral cortex membrane homogenates, 120 min at 22° C.
Protocol: GABAA Receptor Binding Assay:
The affinity of the test compounds for the GABA gated Cl-channel (GABA.A receptor complex) in the rat cerebral cortex was determined in a radioligand binding assay (Lewin et al,. 1989). Membrane homogenates of cerebral cortex are incubated for 120 min at 22° C. with 3 nM [35S]TBPS (-t-butylbicyclophosphoorothionate) in the presence and absence of the test compound.
Following incubation, the samples are filtered rapidly under vacuum through glass fiber filters and rinsed several times with ice-cold buffer using a 96-sample cell harvester. The filters are dried then counted for radioactivity in a scintilliation counter using a scintillation cocktail (Microscint 0, Packard). Each compound was tested at several concentrations to calculate the IC50 values of the affinity to the GABA.A receptor complex in cerebral cortex of rats.

[4] = target: human GABAA α2β3γ2 (Homo sapiens (Human), UniProt P18507+P28472+P47869); assay: Patch clamp electrophysiology, positive modulation, HEK293 cells expressing GABAA α2β3γ2; assay type: cell-based; conditions: GABA EC20 current = 100%
Sequence of human GABAA α2β3γ2 (P47869 29-451): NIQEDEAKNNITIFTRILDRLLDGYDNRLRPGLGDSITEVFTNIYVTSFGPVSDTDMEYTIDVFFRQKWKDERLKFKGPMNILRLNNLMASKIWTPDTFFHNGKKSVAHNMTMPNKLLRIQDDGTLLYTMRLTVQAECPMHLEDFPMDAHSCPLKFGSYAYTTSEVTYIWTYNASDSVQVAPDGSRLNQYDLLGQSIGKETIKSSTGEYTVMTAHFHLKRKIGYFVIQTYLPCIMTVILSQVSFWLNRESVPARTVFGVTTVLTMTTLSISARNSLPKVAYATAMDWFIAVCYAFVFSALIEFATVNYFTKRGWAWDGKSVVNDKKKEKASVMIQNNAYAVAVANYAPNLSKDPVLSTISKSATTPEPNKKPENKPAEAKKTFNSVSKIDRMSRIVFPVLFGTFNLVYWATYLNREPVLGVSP
Sequence of human GABAA α2β3γ2 (P28472 26-473): as the sequence (P28472 26-473) above
Sequence of human GABAA α2β3γ2 (P18507 40-475): as the sequence (P18507 40-475) above
From the text: as §1, §2, §3

[5] = test system: acute pain induced by capsaicin injection in the hindpaw; assay: Capsaicin induced pain model for acute pain, mechanical allodynia (von Frey); assay type: in vivo, rat; conditions: for reversal of acute pain induced by capsaicin injection: 1 or 10 mg/kg oral gavage, rat hindpaw
Protocol: (§4) Mechanical allodynia thresholds were determined according to the methods described by Chaplan and colleagues (Chaplan et al., 1994). At the designated post-operative time points the injured rats were placed in an elevated clear-plastic, wire mesh-bottomed cage. After a 10- to 15-min acclimation period, eight von Frey filaments (Stoelting, Wood Dale, Ill.) with bending forces ranging from 2 to 60 g were used to determine the 50% mechanical threshold for paw withdrawal using the up-and-down method.
Capsaicin induced pain as in vivo model for acute pain
Rats were gently restrained and capsaicin (10 μg in 10 μI of 10% Tween80) in saline was injected into the plantar surface of the hindpaw using a 0.3 ml insulin syringe with a 29-gauge needle (Terumo Europe, Belgium).
After injection of Capsaicin, individual rats were randomly assigned into a treatment group. The following groups were used:
Group 2: Capsaicin injection+ Example 1 (1 mg/kg) in vehicle by oral gavage about 40 minutes after injection.
Group 3: Capsaicin injection+ Example 3 (1 mg/kg) in vehicle by oral gavage about 40 minutes after injection.
Group 2: Capsaicin injection+ Example 2 (10 mg/kg) in vehicle by oral gavage about 40 minutes after injection.
Group 3: Capsaicin injection+ Example 6 (10 mg/kg) in vehicle by oral gavage about 40 minutes after injection.

[6] = test system: neuropathic pain induced by spinal nerve ligation (SNL) injury; assay: SNL model or Chung model for peripheral neuropathic pain, mechanical allodynia (von Frey); assay type: in vivo, rat; conditions: for reversal of neuropathic pain induced by spinal nerve ligation: 10 mg/kg oral gavage for 5 days, rat; for 50% paw withdrawal threshold: cut-off 60 g
Protocol: SNL model or Chung model as in vivo model for peripheral neuropathic pain
Surgery was performed according to the method of Chung et al., 2004 (see List of References). In brief, animals are anesthetized and the hair on their backs is trimmed. Under sterile conditions, a longitudinal incision is made at the lower lumbar and sacral levels, exposing the paraspinal muscles on the left. Connective tissues and muscles are removed by a small scraper, after which bony structures become visible. The L6 vertebra left transverse process of animal was first removed to expose the L4 and L5 spinal nerves. The L5 spinal nerve was then carefully isolated and tightly ligated with 6-0 silk thread. Surgery was always performed on the left leg (Ipsilateral paw), the right leg (contralateral paw) remained intact and served as a control. On completion of the operation, hemostasis is confirmed and the muscles are sutured in layers using silk thread and the skin is closed with metal clips, anesthesia is then discontinued. Axonal degeneration occurs, with all types of axons being approximately equally affected. Pronounced mechanical allodynia follows, accompanied by spontaneous pain behaviors, which lasts for several weeks without recovery. Mechanical allodynia is typically assessed beginning 1-2 weeks post-surgery.
as §4
After spinal nerve ligation (SNL) injury, individual rats were randomly assigned into a treatment group. The following groups were used:
Group 2: SNL+ Example 1 (10 mg/kg) in vehicle by oral gavage for 5 days from DPO7 (pre-treat) till DPO12.
Group 3: SNL+ Example 2 (10 mg/kg) in vehicle by oral gavage for 5 days from DPO7 (pre-treat) till DPO12.
Group 2: SNL+ Example 3 (10 mg/kg) in vehicle by oral gavage for 5 days from DPO14 till DPO19.
Group 3: SNL+ Example 4 (10 mg/kg) in vehicle by oral gavage for 5 days from DPO14 till DPO19.
Group 4: SNL+ Example 6 (10 mg/kg) in vehicle by oral gavage for 5 days from DPO14 till DPO19.

[7] = Experiment 2, 10 mg/kg oral gavage about 40 minutes after capsaicin, 150 minutes after capsaicin injection
[8] = Experiment 2, 10 mg/kg oral gavage about 40 minutes after capsaicin, 210 minutes after capsaicin injection
[9] = Experiment 2, 10 mg/kg oral gavage 5 days DPO14-DPO19, at DPO21
[10] = Experiment 2, 10 mg/kg oral gavage 5 days DPO14-DPO19, after DPO21 till end of experiment at DPO35
[11] = Experiment 1, 1 mg/kg oral gavage about 40 minutes after capsaicin, 150 minutes after capsaicin injection
[12] = Experiment 1, 1 mg/kg oral gavage about 40 minutes after capsaicin, 210 minutes after capsaicin injection
[13] = Experiment 1, 10 mg/kg oral gavage 5 days DPO7-DPO12, at DPO35 (end of experiment)

Sequence of human GABAA α3β3γ2 (P34903 29-492): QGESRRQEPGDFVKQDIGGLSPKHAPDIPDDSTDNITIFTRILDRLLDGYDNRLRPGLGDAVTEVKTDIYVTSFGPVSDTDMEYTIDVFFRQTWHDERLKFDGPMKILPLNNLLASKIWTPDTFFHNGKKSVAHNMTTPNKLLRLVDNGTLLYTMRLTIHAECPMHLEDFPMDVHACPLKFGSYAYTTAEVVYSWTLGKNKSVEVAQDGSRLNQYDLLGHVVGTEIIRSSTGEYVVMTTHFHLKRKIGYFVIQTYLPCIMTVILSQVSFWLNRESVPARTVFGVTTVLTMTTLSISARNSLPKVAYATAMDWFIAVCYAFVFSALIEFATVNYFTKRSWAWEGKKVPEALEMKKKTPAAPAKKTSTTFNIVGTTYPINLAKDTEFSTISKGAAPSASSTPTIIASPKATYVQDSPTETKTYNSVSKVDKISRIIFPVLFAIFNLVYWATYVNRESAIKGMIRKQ
Sequence of human GABAA α3β3γ2 (P28472 26-473): as the sequence (P28472 26-473) above
Sequence of human GABAA α3β3γ2 (P18507 40-475): as the sequence (P18507 40-475) above

Structure (SMILES)	GABAA α3β3γ2 normalized percent current ([1]; 10 μM test compound) [%]	GABAA α1β3γ2 normalized percent current ([2]; 10 μM test compound) [%]	IC50 [3] [µM]	GABAA α2β3γ2 normalized percent current ([4]; 10 μM test compound) [%]	reversal of acute pain induced by capsaicin injection [5]	reversal of neuropathic pain induced by spinal nerve ligation [6]	50% paw withdrawal threshold [6, 9]	further results
N#CC(C(=S)Nc1ccc(SC(F)(F)F)cc1)=C(O)C1CC1 [Example 5, 2-Cyano-3-cyclopropyl-3-hydroxy-N-(4-trifluoromethylsulfanyl-phenyl)-thioacrylamide]	315	707	7.7	453	–	–	–	–
Cc1cc(NC(=S)C(C#N)=C(O)C2CC2)ccc1C#N [Example 6, 2-Cyano-N-(4-cyano-3-methyl-phenyl)-3-cyclopropyl-3-hydroxy-thioacrylamide]	357	338	7.9	286	can reverse acute pain	can reverse neuropathic pain	~40 g	50% paw withdrawal threshold [5, 7]: 35 g; 50% paw withdrawal threshold [5, 8]: 25 g
N#CC(C(=S)Nc1ccc([N+](=O)[O-])cc1)=C(O)C1CC1 [Example 4, 2-Cyano-3-cyclopropyl-3-hydroxy-N-(4-nitro-phenyl)-thioacrylamide]	–	–	8.7	–	–	can reverse neuropathic pain	~50 g	50% paw withdrawal threshold [6, 10]: 30 g
Cc1cc(NC(=S)C(C#N)=C(O)C2CC2)ccc1[N+](=O)[O-] [Example 3, 2-Cyano-3-cyclopropyl-3-hydroxy-N-(3-methyl-4-nitro-phenyl)-thioacrylamide]	–	–	6	–	can reverse acute pain	can reverse neuropathic pain	about 35 g	GABAA α3β3γ2 normalized percent current ([1]; 50 μM test compound): 469%; GABAA α1β3γ2 normalized percent current ([2]; 50 μM test compound): 424%; GABAA α2β3γ2 normalized percent current ([4]; 50 μM test compound): 380%; 50% paw withdrawal threshold [5, 11]: 40 g; 50% paw withdrawal threshold [5, 12]: ~50 g; 50% paw withdrawal threshold [6, 10]: 23 to 25 g
N#CC(C(=S)Nc1ccc(S(=O)(=O)C(F)(F)F)cc1)=C(O)C1CC1 [Example 9, 2-Cyano-3-cycopropyl-3-hydroxy-N-(4-trifluoromethanesulfonyl-phenyl)-thioacrylamide]	328	286	5	259	–	–	–	–
Cc1cc(NC(=S)C(C#N)=C(O)C2CC2)ccc1F [Example 2, 2-Cyano-3-cyclopropyl-N-(4-fluoro-3-methyl-phenyl)-3-hydroxy-thioacrylamide]	–	–	8.3	–	can reverse acute pain	can reverse neuropathic pain	–	GABAA α3β3γ2 normalized percent current ([1]; 50 μM test compound): 835%; GABAA α1β3γ2 normalized percent current ([2]; 50 μM test compound): 734%; GABAA α2β3γ2 normalized percent current ([4]; 50 μM test compound): 470%; 50% paw withdrawal threshold [5, 7]: ~40 g; 50% paw withdrawal threshold [5, 8]: ~33 g; 50% paw withdrawal threshold ([6]; Experiment 1, 10 mg/kg oral gavage 5 days DPO7-DPO12, at DPO21): 40 g; 50% paw withdrawal threshold [6, 13]: 40 g
N#CC(C(=S)Nc1ccc(C#N)cc1)=C(O)C1CC1 [Example 7, 2-Cyano-N-(4-cyano-phenyl)-3-cyclopropyl-3-hydroxy-thioacrylamide]	–	–	9.6	–	–	–	–	–
N#CC(C(=S)Nc1ccc([S+]([O-])C(F)(F)F)cc1)=C(O)C1CC1 (stereo not shown) [Example 8, 2-Cyano-3-cyclopropyl-3-hydroxy-N-(4-trifluoromethanesulfinyl-phenyl)-thioacrylamide]	–	–	10.3	–	–	–	–	–
Cc1cc(NC(=S)C(C#N)=C(O)C2CC2)ccc1C(F)(F)F [Example 1, 2-Cyano-3-cyclopropyl-3-hydroxy-N-(3-methyl-4-trifluormethyl-phenyl)-thioacrylamide]	697	792	5.3	614	can reverse acute pain	can reverse neuropathic pain	–	50% paw withdrawal threshold [5, 11]: 30 g; 50% paw withdrawal threshold [5, 12]: ~50 g; 50% paw withdrawal threshold [6, 13]: 30 g
